Results reported in patent EP4711361A1, “NITROGEN-CONTAINING HETEROCYCLIC COMPOUND AND USE THEREOF” (Jiangsu Deyuan Pharmaceutical Co.,Ltd., priority 2023, dated 2024).
pIC50: −log10 of the molar value.

How the values were obtained:
[1] = molecular target: T1, human CYP11B1 (Homo sapiens, UniProt P15538); test: In vitro activity assay of monoclonal cells overexpressing human CYP11B1; format: cell-based; settings: G402 cells overexpressing human CYP11B1; 1 µM 11-deoxycortisol, 16 hours; cortisol by LC-MS/MS
T1 construct: expressed in transfected cells; host or cells: human renal leiomyoma G402 cells (monoclonal)
T1 sequence (P15538 25-503): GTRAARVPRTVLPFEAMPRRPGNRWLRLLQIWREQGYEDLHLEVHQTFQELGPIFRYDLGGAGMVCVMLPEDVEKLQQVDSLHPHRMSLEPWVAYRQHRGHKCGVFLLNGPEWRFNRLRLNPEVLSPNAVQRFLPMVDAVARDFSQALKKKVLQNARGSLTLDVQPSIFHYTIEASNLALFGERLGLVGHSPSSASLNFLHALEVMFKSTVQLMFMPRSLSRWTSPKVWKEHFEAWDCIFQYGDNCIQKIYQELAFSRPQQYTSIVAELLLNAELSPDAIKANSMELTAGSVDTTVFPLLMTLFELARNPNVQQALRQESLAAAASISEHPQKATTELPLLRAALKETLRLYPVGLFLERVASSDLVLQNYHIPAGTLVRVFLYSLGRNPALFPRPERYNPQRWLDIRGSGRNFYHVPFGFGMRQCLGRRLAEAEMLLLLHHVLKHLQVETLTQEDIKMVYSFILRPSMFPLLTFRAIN
Protocol: The human renal leiomyoma G402 cell line overexpressing human CYP11B1 was selected to serve as a compound selectivity screening system.
Day 1: Cells were digested, and human renal leiomyoma G402 cells overexpressing CYP11B1 were resuspended to 1×10^5 cells/mL, with 100 µL seeded into a 96-well plate.
(§1) Day 3: The cell supernatant was collected and added to 200 µL of a methanol solution containing internal standards (internal standards: 35 ng/mL ketoprofen or 7.5 ng/mL carbamazepine or 5 ng/mL diphenhydramine or 10 ng/mL tolbutamide). The mixture was vortexed and centrifuged (4000×g, 4°C, 5 minutes). Then, 100 µL of the supernatant was taken and mixed with 100 µL of pure water.
Ratio = Cortisol peak area/Internal standard peak area [formula] Control activity% = (Ratiotestcompound/RatioDMSO) × 100% [formula]
(§2) "Ratio test compound" represents the Ratio values at different concentrations of the test compound.
(§3) "Ratio DMSO" represents the Ratio value without the addition of the test compound. • X = Log (compound concentration) • Y = Control activity%
The IC50 of the test compound was determined by fitting to a nonlinear regression equation using XLfit 5.5.0. Table 4: Results for in vitro activity assay of monoclonal cells overexpressing human CYP11B1

[2] = molecular target: T2, human CYP11B2 (Homo sapiens, UniProt P19099); test: In vitro activity assay of monoclonal cells overexpressing human CYP11B2; format: cell-based; settings: G402 cells overexpressing human CYP11B2; 1 µM 11-deoxycorticosterone, 16 hours; aldosterone by LC-MS/MS
T2 construct: expressed in transfected cells; host or cells: human renal leiomyoma G402 cells (monoclonal)
T2 sequence (P19099 25-503): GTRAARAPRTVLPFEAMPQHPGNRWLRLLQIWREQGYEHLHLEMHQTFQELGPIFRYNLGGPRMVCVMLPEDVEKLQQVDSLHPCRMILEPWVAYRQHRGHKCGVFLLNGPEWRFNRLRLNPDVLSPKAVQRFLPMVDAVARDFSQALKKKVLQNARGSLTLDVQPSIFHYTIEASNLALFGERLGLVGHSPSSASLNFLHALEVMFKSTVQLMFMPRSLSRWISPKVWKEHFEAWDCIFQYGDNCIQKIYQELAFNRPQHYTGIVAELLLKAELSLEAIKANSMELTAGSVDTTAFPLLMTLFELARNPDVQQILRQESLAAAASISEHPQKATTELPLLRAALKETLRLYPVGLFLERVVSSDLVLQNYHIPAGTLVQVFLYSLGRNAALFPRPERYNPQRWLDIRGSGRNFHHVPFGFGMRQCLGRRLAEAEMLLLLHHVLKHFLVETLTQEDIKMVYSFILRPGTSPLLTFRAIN
Protocol: The human renal leiomyoma G402 cell line overexpressing human CYP11B2 was selected to serve as a compound activity screening system. Table 1: Cell and reagent information
2) Compound details: The test compound was prepared as a 10 µM working concentration using DMSO. 3) Experimental procedure
Day 1: Cells were digested, and human renal leiomyoma G402 cells overexpressing human CYP11B2 were resuspended to 1×10^5 cells/mL, with 100 µL seeded into a 96-well plate.
as §1
Ratio = Aldosterone peak area/Internal standard peak area [formula] Control activity% = (Ratiotestcompound/RatioDMSO) × 100% [formula]
as §2, §3
The IC50 of the test compound was determined by fitting to a nonlinear regression equation using XLfit 5.5.0. Table 3: Results for in vitro activity assay of monoclonal cells overexpressing human CYP11B2

[3] = system: MDR1-MDCKII cells; test: Permeability test (MDR1-MDCKII monolayer, bidirectional transport); format: in vitro ADME; settings: 2 µM; for Efflux ratio (ER): ER = Papp (BA)/ Papp (AB), 150 min; for Apparent permeability coefficient (Papp (AB), 10^-6 cm/s): pH 7.40, 2.5 hours, A to B
Protocol: (§4) Experimental objective: The permeability and efflux ratio of the compound of the present disclosure were determined using the MDR1-MDCKII monolayer cell model to assess its membrane permeability and potential for P-gp-mediated efflux transport.
(§5) Experimental protocol: MDR1-MDCKII cells (obtained from the Netherlands Cancer Institute) were seeded in 96-well plates (obtained from Corning) at a cell density of 3.33 × 10^5 cells/mL and cultured for 4 to 7 days to form confluent cell monolayers. Hank's balanced salt solution containing 10 mM HEPES (pH 7.40) was used as the transport buffer. The test compound was evaluated for bidirectional transport at a concentration of 2 µM, with the DMSO concentration in the incubation system maintained below 1%. After adding the samples, the cell plate was incubated at 37±1°C, 5% CO2, and saturated humidity for 2.5 hours. All samples were quantitatively analyzed using the LC-MS/MS method. The apparent permeability coefficient (Papp, cm/s) and efflux ratio (ER) were calculated using the following formula. Apparent permeability coefficient (Papp, cm/s) was calculated using the following formula: Papp = (dCr/dt) x Vr / (A x C0). Herein, dCr/dt represents the cumulative concentration of the compound at the receiving end per unit time (µM/s); Vr is the volume of the solution at the receiving end (with solution volumes at the apical and basolateral ends being 0.075 mL and 0.250 mL, respectively); A is the relative surface area of the cell monolayer (0.143 cm^2); C0 is the initial concentration of the test substance at the dosing end (µM) or the peak area ratio of the reference substance. The efflux ratio was calculated using the following formula: ER = Papp (BA)/ Papp (AB). Table 7: Permeability test results of compounds

[4] = as above; format: in vitro ADME; settings: dog; for efflux ratio at 2.5 h, 2 µM: MDCK-MDR1, pH 7.4, ER = Papp (BA)/ Papp (AB); for Papp A→B at 2.5 h, 2 µM: MDCK-MDR1, pH 7.4, pH 7.40, 2.5 hours, A to B, read-out: Apparent permeability coefficient (Papp (AB), 10^-6 cm/s)
Protocol: as §4, §5

[5] = in vitro; settings: rat, plasma
[6] = in vitro; settings: cynomolgus monkey, plasma
[7] = in vitro; settings: human, plasma
[8] = in vivo; settings: cynomolgus monkey, po, 3 mg/kg
[9] = in vitro; settings: human, microsomes
[10] = system: patients with resistant hypertension; settings: cited from earlier work
[11] = 2 mg dose, patients with resistant hypertension

SMILES | pIC50 [1] | pIC50 [2] | Efflux ratio (ER) [3] | Apparent permeability coefficient (Papp (AB), 10^-6 cm/s) [3] | also measured
CCC(=NOC)NC1CCCc2c(-c3ccc4c(c3)CCC(=O)N4C)cncc21 (single isomer, unassigned) [Compound 005] | 5.85 | 7.71 | 0.70 | 23.1 10^-6 cm/s | 
CCC(=O)NC1CCCc2c(-c3cc(F)c4c(c3)OCC(=O)N4C)cncc21 (single isomer, unassigned) [Compound 031] | 5.32 | 7.65 | 0.89 | 20.0 10^-6 cm/s | 
Cn1c(=O)ccc2cc(-c3cncc4c3CCC[C@H]4NC(=O)c3ncccc3Cl)ccc21 (single isomer, unassigned) [Compound 014] |  | 7.69 |  |  | 
CCC(=O)NC1CCOc2c(-c3ccc4c(ccc(=O)n4C)c3)cncc21 (single isomer, unassigned) [Compound 044] | 4.71 | 7.48 |  |  | efflux ratio at 2.5 h, 2 µM [4]: 2.46; Papp A→B at 2.5 h, 2 µM [4]: 11 ×10⁻⁶ cm/s; fraction unbound at 4 h, 2 µM [5]: 0.024; fraction unbound at 4 h, 2 µM [6]: 0.336; fraction unbound at 4 h, 2 µM [7]: 0.295
CCC(=O)NC1CCCc2c(-c3ccc4c(c3)OCC(=O)N4C)cncc21 (single isomer, unassigned) [Compound 011] | 5.16 | 7.22 | 0.89 | 24.3 10^-6 cm/s | 
CCC(=O)NC1CCN(C2CCCc3c(-c4ccc5c(ccc(=O)n5C)c4)cncc32)CC1 (single isomer, unassigned) [Compound 030] | 5.66 | 7.31 |  |  | 
CCC(=O)NC1CCCc2c(-c3cc4ccc(=O)n(C)c4cc3F)cncc21 (single isomer, unassigned) [Compound 019] | 5.77 | 7.76 |  |  | AUC(0-t) at 24 h [8]: 23.9 µM·h; Cmax [8]: 3.79 µM; bioavailability [8]: 113%; half-life [8]: 4.65 h; CLint scaled at 1 µM [9]: < 8.6 mL/min/kg; efflux ratio at 2.5 h, 2 µM [4]: 1.55; Papp A→B at 2.5 h, 2 µM [4]: 21.5 ×10⁻⁶ cm/s; fraction unbound at 4 h, 2 µM [5]: 0.129; fraction unbound at 4 h, 2 µM [6]: 0.248; fraction unbound at 4 h, 2 µM [7]: 0.238
CCC(=O)NC1CCc2c(-c3ccc4c(ccc(=O)n4C)c3)cncc21 (single isomer, unassigned) [Compound 048] | 5.60 | 8.15 |  |  | 
CCS(=O)(=O)N1CC(Oc2cncc(-c3ccc4c(c3)OCC(=O)N4C)c2)C1 [Compound 016] |  | 7.20 |  |  | 
CCC(=O)N[C@@H]1CCCc2c(-c3ccc4c(c3)CCC(=O)N4C)cncc21 [Baxdrostat] |  |  |  |  | office systolic and diastolic blood pressure [10, 11]: demonstrated efficacy; safety and tolerability [10, 11]: favorable safety and tolerability profiles; aldosterone secretion levels ([10]; clinical studies): dose-dependent reduction; blood pressure ([10]; clinical studies): dose-dependent reduction; blood pressure reduction ([10]; phase 2 trials): significant blood pressure reduction; cortisol levels ([10]; phase 2 trials): no impact on cortisol levels; elevated blood potassium ([10]; phase 2 trials): rare occurrence of elevated blood potassium; steroid precursor accumulation ([10]; phase 2 trials): absence of steroid precursor accumulation
CCC(=O)NC1CCCc2c(-c3ccc4c(c3)OCC(=O)N4C)cncc21 (single isomer, unassigned) [Compound 010] | 5.16 | 7.15 |  |  | 
Cc1noc(C)c1C(=O)NC1CCCc2c(-c3cc4ccc(=O)n(C)c4cc3F)cncc21 (single isomer, unassigned) [Compound 020] | 5.95 | 7.59 |  |  | CLint scaled at 1 µM [9]: 12.9 mL/min/kg; efflux ratio at 2.5 h, 2 µM [4]: 2.47; Papp A→B at 2.5 h, 2 µM [4]: 14 ×10⁻⁶ cm/s; fraction unbound at 4 h, 2 µM [5]: 0.083; fraction unbound at 4 h, 2 µM [6]: 0.097; fraction unbound at 4 h, 2 µM [7]: 0.144
CCC(=O)NC1CCCc2c(-c3ccc4c(ccc(=O)n4C)c3Cl)cncc21 (single isomer, unassigned) [Compound 042] |  | 7.39 |  |  | 
CCC(=O)NC1CCOc2c(-c3cc4ccc(=O)n(C)c4s3)cncc21 (single isomer, unassigned) [Compound 045] | 4.46 | 7.37 | 1.30 | 16.7 10^-6 cm/s | 
Cc1noc(C)c1C(=O)NC1CCCc2c(-c3ccc4c(ccc(=O)n4C)c3)cncc21 (single isomer, unassigned) [Compound 015] |  | 7.50 |  |  | 
CCC(=O)NC1CCCc2c(-c3ccc4c(c3)C3CC3C(=O)N4C)cncc21 (single isomer, unassigned) [Compound 025] |  | 7.18 |  |  | 
CCC(=O)NC1CCOc2c(-c3cc4c(s3)N(C)C(=O)CC4)cncc21 (single isomer, unassigned) [Compound 046] | 5.80 | 7.88 | 1.17 | 18.0 10^-6 cm/s | 
CCC(=O)NC1CCCc2c(-c3nc4ccc(=O)n(C)c4s3)cncc21 (single isomer, unassigned) [Compound 041] | 5.17 | 7.37 |  |  | 
CCC(=O)NC1CCCc2c(-c3cc4c(cc3F)N(C)C(=O)CO4)cncc21 (single isomer, unassigned) [Compound 032] | 5.25 | 7.52 | 0.86 | 22.6 10^-6 cm/s | 
